Experimental findings from patent publication US20220281886A1, “NATRIURETIC PEPTIDE RECEPTOR A AGONISTS USEFUL FOR THE TREATMENT OF CARDIOMETABOLIC DISEASES, KIDNEY DISEASE AND DIABETES” (Merck Sharp & Dohme Corp., priority 2019, published 2022) are described below.

In the assay the target is T1, hNPRA (Homo sapiens, UniProt P16066).
T1 construct: expressed in transfected cells
T1 sequence (P16066 33-1061): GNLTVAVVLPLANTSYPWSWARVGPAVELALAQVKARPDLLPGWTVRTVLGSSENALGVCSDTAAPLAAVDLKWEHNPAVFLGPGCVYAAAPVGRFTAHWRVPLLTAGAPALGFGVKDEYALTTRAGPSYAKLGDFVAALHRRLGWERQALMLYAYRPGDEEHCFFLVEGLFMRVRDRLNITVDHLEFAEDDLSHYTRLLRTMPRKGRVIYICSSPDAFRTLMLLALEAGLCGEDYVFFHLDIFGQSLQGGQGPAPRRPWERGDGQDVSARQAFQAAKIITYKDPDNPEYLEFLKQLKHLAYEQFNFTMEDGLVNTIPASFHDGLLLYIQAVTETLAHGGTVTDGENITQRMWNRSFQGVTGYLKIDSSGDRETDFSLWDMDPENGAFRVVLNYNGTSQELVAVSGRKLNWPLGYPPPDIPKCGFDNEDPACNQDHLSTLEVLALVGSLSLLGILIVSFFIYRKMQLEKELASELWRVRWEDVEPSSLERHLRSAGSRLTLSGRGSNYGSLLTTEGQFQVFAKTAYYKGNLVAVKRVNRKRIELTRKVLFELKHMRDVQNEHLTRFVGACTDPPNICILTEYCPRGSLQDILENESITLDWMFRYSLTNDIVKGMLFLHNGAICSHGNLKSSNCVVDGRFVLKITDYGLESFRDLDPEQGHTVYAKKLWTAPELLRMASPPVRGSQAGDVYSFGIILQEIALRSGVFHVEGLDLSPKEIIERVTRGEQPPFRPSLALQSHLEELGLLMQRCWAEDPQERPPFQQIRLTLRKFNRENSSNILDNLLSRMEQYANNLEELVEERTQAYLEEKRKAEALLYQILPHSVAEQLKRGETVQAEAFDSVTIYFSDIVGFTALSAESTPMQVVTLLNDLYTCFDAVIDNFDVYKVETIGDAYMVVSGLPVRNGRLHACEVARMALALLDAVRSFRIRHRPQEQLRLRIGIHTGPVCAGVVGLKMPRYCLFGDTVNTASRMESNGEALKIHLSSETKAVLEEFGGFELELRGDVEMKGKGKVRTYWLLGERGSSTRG
Briefly: NPRA Functional Cell Assay (cGMP HTRF). Format: cell-based. The settings on record: Human NPRA HEK JumpIn stable cells; cGMP by HTRF after 1 hour at 37° C.; 10-point dose response. From the text:
Assay Buffer components HEPES and Opti-MEM® I Reduced-Serum with Glutamine (no phenol red) were from Gibco/Invitrogen (Thermo Fisher Scientific, Waltham, Mass. USA). 3-Isobutyl-1-methylxanthine (IBMX) and 4-(3-Butoxy-4-methoxybenzyl)imidazolidin-2-one (RO20) were obtained from Sigma-Aldrich (St. Louis, Mo., USA). DPBS (Dulbecco's phosphate-buffered saline) without Ca2+ and Mg2+ was purchased from GE Healthcare Bio-Sciences (Pittsburgh, Pa., USA). 384 well white Optiplates were from Perkin Elmer (Atlantic Highlands, N.J., USA). Human ANP (Atrial Natriuretic Peptide) (1-28) was purchased from Sigma-Aldrich (Catalog #A1663) and rat ANP (1-28) from Bachem (Torrance, Calif., USA) (Catalog #H2100). Human-BNP (Human-Brain Natriuretic Peptide) (1-32 AA) was purchased from American Peptide Company (Sunnyvale, Calif., USA) (product No. 14-1-90). cGMP kits were purchased from Cisbio. The assay ready frozen (ARF) Human/rat/dog NPRA HEK JumpIn Stable frozen cells (low passage number 5-11) were prepared in-house.
Test compounds were titrated in DMSO in a 10-point dose response in a separate step followed by a 100-fold dilution into the reaction. Positive response for each assay was determined using 10 nM rat-ANP peptide (rat cells) or 50 nM h-ANP peptide (human and dog cells).
Cells were thawed, washed with DPBS and resuspended in assay buffer (Opti-MEM+Glutamine, phenol red free media, 10 mM HEPES, 100 uM IBMX and 100 uM RO20) that was warmed to 37° C. Cells were then transferred to microplates via a Microplate Combi dispenser at a density of 1500, 400 and 1200 cells/well for human, rat and dog cells respectively, followed by acoustic transfer (Echo) of compound.
Compounds and cells were incubated at 37° C. with 5% CO2 for 1 hour, after which the cells were lysed and cGMP was captured using a CisBio cGMP HTRF assay kit. The TRF signal was measured with an Envision plate reader (emission set to 615 and 665 nm) after 1 hour incubation at ambient temperature. The TRF signal was converted to [cGMP] through the use of a cGMP calibration curve on each microplate. EC50's were generated from the resulting dose response curves by use of a 4 parameter logistic algorithm.
Assay Buffer components HEPES and Opti-MEM® I Reduced-Serum with Glutamine (no phenol red) were from Gibco/Invitrogen. 3-Isobutyl-1-methylxanthine (IBMX) and 4-(3-Butoxy-4-methoxybenzyl)imidazolidin-2-one (RO20) were obtained from Sigma. DPBS (Dulbecco's phosphate-buffered saline) without Ca2+ and Mg2+ was purchased from GE Healthcare Bio-Sciences (Pittsburgh, Pa., USA). 384 well white Optiplates were from Perkin Elmer (Atlantic Highlands, N.J., USA). Human ANP (1-28) was purchased from Sigma (A1663) and rat ANP (1-28) from Bachem (H2100). Human-BNP (1-32 AA) was purchased from American Peptide Company (Sunnyvale, Calif., USA) (product No. 14-1-90). cGMP kits were purchased from Cisbio (Bedford, Mass., USA). The assay ready frozen (ARF) Human/rat/dog NPRA HEK JumpIn Stable frozen cells (low passage number 5-11) were prepared in-house.
Compounds and cells were incubated at 37° C. with 5% CO2 for 1 hour, after which the cells were lysed and cGMP was captured using a CisBio cGMP HTRF assay kit. The TRF signal was measured with an Envision® plate reader (Perkin Elmer)(emission set to 615 and 665 nm) after 1 hour incubation at ambient temperature. The TRF signal was converted to [cGMP] through the use of a cGMP calibration curve on each microplate. EC50's were generated from the resulting dose response curves by use of a 4 parameter logistic algorithm.
hNPRA EC50 (nM) are were determined for the compounds of Example 1 through 273 and are reported in the Experimental section of this application.
By EC50 is commonly meant the concentration needed to bring the measured effect to its halfway point. Low readings indicate greater potency, high ones weaker potency. The compound `CC(C)[C@]1(F)CCc2nc3c(F)cc(C(=O)N[C@H](CCN4CCCC4)c4ccc(-c5ccnnc5)nc4)cc3cc2C1` (racemic) [Example 35, rac-(7S)-4,7-difluoro-7-isopropyl-N-[rac-(1R)-1-(6-pyridazin-4-yl-3-pyridyl)-3-pyrrolidin-1-ium-1-yl-propyl]-6,8-dihydro-5H-acridine-2-carboxamide;2,2,2-trifluoroacetate] gave an EC50 of 285 nM.

The compound `CC(C)[C@]1(F)CCc2nc3c(F)cc(C(=O)N[C@H](CCN4CCC[C@H](O)C4)c4ccc(-c5ccnnc5)nc4)cc3cc2C1` (racemic) [Example 36, rac-(7S)-4,7-difluoro-7-isopropyl-N-[rac-(1R)-1-(6-pyridazin-4-yl-3-pyridyl)-3-[rac-(3S)-3-hydroxypiperidin-1-ium-1-yl]propyl]-6,8-dihydro-5H-acridine-2-carboxamide;2,2,2-trifluoroacetate] registered an EC50 of 260 nM.

The compound `CC(C)[C@]1(F)CCc2nc3c(F)cc(C(=O)N[C@H](CCN(C)C)c4ccc(-c5ccnnc5)nc4)cc3cc2C1` (racemic) [Example 37, dimethyl-[rac-(3R)-3-(6-pyridazin-4-yl-3-pyridyl)-3-[[rac-(7S)-4,7-difluoro-7-isopropyl-6,8-dihydro-5H-acridine-2-carbonyl]amino]propyl]ammonium;2,2,2-trifluoroacetate] gave an EC50 of 270 nM.

`CC(C)[C@]1(F)CCc2nc3c(F)cc(C(=O)N[C@H](CCN4CCC5(CCOC5)CC4)c4ccc(-c5ccnnc5)nc4)cc3cc2C1` (racemic) [Example 38, rac-(7S)-4,7-difluoro-7-isopropyl-N-[rac-(1R)-3-(2-oxa-8-azoniaspiro[4.5]decan-8-yl)-1-(6-pyridazin-4-yl-3-pyridyl)propyl]-6,8-dihydro-5H-acridine-2-carboxamide;2,2,2-trifluoroacetate] returned an EC50 of 317 nM.

On to `CC(C)[C@]1(F)CCc2nc3c(F)cc(C(=O)N[C@H](CCN4CCC5(CC4)CC5CO)c4ccc(-c5ccnnc5)nc4)cc3cc2C1` (mixture of isomers) [Example 39, rac-(7S)-4,7-difluoro-7-isopropyl-N-[rac-(1R)-3-[2-(hydroxymethyl)-6-azoniaspiro[2.5]octan-6-yl]-1-(6-pyridazin-4-yl-3-pyridyl)propyl]-6,8-dihydro-5H-acridine-2-carboxamide;2,2,2-trifluoroacetate], for which the EC50 stood at 258 nM.

The compound `CC(C)[C@]1(F)CCc2nc3c(F)cc(C(=O)N[C@H](CCN4CCC[C@@H](O)C4)c4ccc(-c5ccnnc5)nc4)cc3cc2C1` (racemic) [Example 40, rac-(7S)-4,7-difluoro-7-isopropyl-N-[rac-(1R)-1-(6-pyridazin-4-yl-3-pyridyl)-3-[rac-(3R)-3-hydroxypiperidin-1-ium-1-yl]propyl]-6,8-dihydro-5H-acridine-2-carboxamide;2,2,2-trifluoroacetate] registered a 50% effective concentration (EC50) of 338 nM.

Compound `CC(O)C1CCN(CC[C@@H](NC(=O)c2cc(F)c3nc4c(cc3c2)C[C@](F)(C(C)C)CC4)c2ccc(-c3ccnnc3)nc2)CC1` (mixture of isomers) [Example 41, rac-(7S)-4,7-difluoro-7-isopropyl-N-[rac-(1R)-3-[4-(1-hydroxyethyl)piperidin-1-ium-1-yl]-1-(6-pyridazin-4-yl-3-pyridyl)propyl]-6,8-dihydro-5H-acridine-2-carboxamide;2,2,2-trifluoroacetate] came in with an EC50 of 236 nM.

`CC(C)[C@]1(F)CCc2nc3c(F)cc(C(=O)N[C@H](CCN4CCC5CCCCC5C4)c4ccc(-c5ccnnc5)nc4)cc3cc2C1` (mixture of isomers) [Example 42, rac-(7S)-4,7-difluoro-7-isopropyl-N-[rac-(1R)-3-(1,2,3,4,4a,5,6,7,8,8a-decahydroisoquinolin-2-ium-2-yl)-1-(6-pyridazin-4-yl-3-pyridyl)propyl]-6,8-dihydro-5H-acridine-2-carboxamide;2,2,2-trifluoroacetate] gave an EC50 of 375 nM.

`CC(C)[C@]1(F)CCc2nc3c(F)cc(C(=O)N[C@H](CCN4CCCCC4CCN(C)C)c4ccc(-c5ccnnc5)nc4)cc3cc2C1` (mixture of isomers) [Example 43, rac-(7S)-4,7-difluoro-7-isopropyl-N-[rac-(1R)-3-[2-[2-(dimethylamino)ethyl]piperidin-1-ium-1-yl]-1-(6-pyridazin-4-yl-3-pyridyl)propyl]-6,8-dihydro-5H-acridine-2-carboxamide;2,2,2-trifluoroacetate] showed an EC50 of 216 nM.

`CC1CCCCN1CC[C@@H](NC(=O)c1cc(F)c2nc3c(cc2c1)C[C@](F)(C(C)C)CC3)c1ccc(-c2ccnnc2)nc1` (mixture of isomers) [Example 44, rac-(7S)-4,7-difluoro-7-isopropyl-N-[rac-(1R)-3-(2-methylpiperidin-1-ium-1-yl)-1-(6-pyridazin-4-yl-3-pyridyl)propyl]-6,8-dihydro-5H-acridine-2-carboxamide;2,2,2-trifluoroacetate] returned an EC50 of 150 nM.

In the case of `CC(C)[C@]1(F)CCc2nc3c(F)cc(C(=O)N[C@H](CCN4CCC(CO)CC4)c4ccc(-c5ccnnc5)nc4)cc3cc2C1` (racemic) [Example 45, rac-(7S)-4,7-difluoro-7-isopropyl-N-[rac-(1R)-3-[4-(hydroxymethyl)piperidin-1-ium-1-yl]-1-(6-pyridazin-4-yl-3-pyridyl)propyl]-6,8-dihydro-5H-acridine-2-carboxamide;2,2,2-trifluoroacetate], the EC50 is 136 nM.

`COCC1CCN(CC[C@@H](NC(=O)c2cc(F)c3nc4c(cc3c2)C[C@](F)(C(C)C)CC4)c2ccc(-c3ccnnc3)nc2)CC1` (racemic) [Example 46, rac-(7S)-4,7-difluoro-7-isopropyl-N-[rac-(1R)-3-[4-(methoxymethyl)piperidin-1-ium-1-yl]-1-(6-pyridazin-4-yl-3-pyridyl)propyl]-6,8-dihydro-5H-acridine-2-carboxamide;2,2,2-trifluoroacetate] came in with an EC50 of 204 nM.
